Reference: patent publication US8362008B2 (The University Of Edinburgh, priority 2007, dated 2013)

Molecular target: T1, human 11β-HSD1 enzyme (Homo sapiens, UniProt P28845)
T1 construct: stably transfected with a construct containing the full-length gene coding for the human 11β-HSD1 enzyme; expressed in transfected cells; host or cells: HEK293 (HEK293/11β-HSD1 cells)
Test: Cellular in vitro 11β-HSD1 enzyme inhibition assay (SPA, HEK293/11β-HSD1 cells)
Format: cell-based
Procedure: Cellular In Vitro 11β-HSD1 Enzyme Inhibition Assay
Compounds were assessed by a Scintillation Proximity Assay (SPA) performed according to the following protocol:
HEK293 cells were stably transfected with a construct containing the full-length gene coding for the human 11β-HSD1 enzyme to create HEK293/11β-HSD1 cells. Cells were routinely cultured in DMEM containing 10% calf foetal serum, 1% glutamine, and 1% penicillin and streptomycin. Prior to assay, cells were plated at 2×10^4 cells/well in 96-well poly-D-Lys coated flat-bottomed microplates and incubated in 5% CO2, 95% O2 at 37° C. for 24 hours. The media in each well was removed immediately before assay.
Compounds to be tested were dissolved in DMSO at 10 mM and serially diluted into water containing 10% DMSO. Diluted compounds at a volume of 10 μL were added to wells of a 96-well V-bottomed microplate. […] This solution (100 μL/well) was transferred to the plate containing the cells. The plate was then incubated in 5% CO2, 95% O2 at 37° C. for 2 hours.
Following this incubation, 50 μL of the assay solution was transferred to each well of a 96-well scintillation microplate. A mixture consisting of anti-mouse YSi SPA beads, pre-mixed with anti-cortisol antibody in assay buffer (50 mM Tris.HCl, pH 7.0; 300 mM NaCl; 1 mM EDTA, 5% glycerol) was prepared and 50 μL added to each well of the scintillation microplate. An adhesive strip was applied to the microplate and the plate gently shaken for at least 2 hours at room temperature, and then spun briefly on a low speed centrifuge. The plate was read on a scintillation counter suitable for 96-well microplates. For the calculation of percentage inhibition, a series of wells were added to the plate that represented the assay maximum and the assay minimum: one set that contained substrate without cells (mimimum) and another set that contained substrate and cells without any compound (maximum).
The calculation of median inhibitory concentration (IC50) values for the compounds was performed using GraphPad Prism® software. Dose-response curves for each compound were plotted as fractional inhibition and data fitted to the four parameter logistic equation.

[1] = HEK293, more than 1000 nM (1.0 μM) and less than or equal to 30 μM
[2] = HEK293, less than or equal to 1000 nM (1 μM)

T1 sequence (P28845 whole entry): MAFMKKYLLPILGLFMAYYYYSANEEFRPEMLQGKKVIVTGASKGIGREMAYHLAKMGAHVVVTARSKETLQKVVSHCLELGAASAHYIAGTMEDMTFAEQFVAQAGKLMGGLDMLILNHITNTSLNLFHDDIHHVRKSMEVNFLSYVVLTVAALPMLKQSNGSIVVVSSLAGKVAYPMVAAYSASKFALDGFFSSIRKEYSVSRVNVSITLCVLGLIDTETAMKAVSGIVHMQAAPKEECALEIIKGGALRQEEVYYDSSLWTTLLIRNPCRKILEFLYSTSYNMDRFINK

## O=C(c1csc(COc2ccccc2)c1)N1CCCCC1 [BB-001]
[1]
  IC50: 1000 to 30000 nM

## Cc1ccccc1OCc1cc(C(=O)N2CCCCC2)cs1 [BB-002, Piperidin-1-yl-(5-o-tolyloxymethyl-thiophen-3-yl)-methanone]
[2]
  IC50: ≤ 1000 nM

## O=C(c1csc(COc2ccc(-n3ccnc3)cc2)c1)N1CCCCC1 [BB-003]
[1]
  IC50: 1000 to 30000 nM

## O=C(c1csc(COc2ccc(-n3cncn3)cc2)c1)N1CCCCC1 [BB-004]
[1]
  IC50: 1000 to 30000 nM

## COCc1cc(C(=O)N2CCCCCC2)cs1 [BB-005]
[1]
  IC50: 1000 to 30000 nM

## COCc1cc(C(=O)N2CC3(C)CC2CC(C)(C)C3)cs1 (stereo not drawn) [BB-006]
[2]
  IC50: ≤ 1000 nM

## O=C(c1csc(C2CCOCC2)c1)N1CCCCC1 [CC-001, Piperidin-1-yl-[5-(tetrahydro-pyran-4-yl)-thiophen-3-yl]-methanone]
[1]
  IC50: 1000 to 30000 nM

## CC1CCCCN1C(=O)c1csc(C2CCOCC2)c1 (stereo not drawn) [CC-002]
[1]
  IC50: 1000 to 30000 nM

## O=C(c1csc(C2CCOCC2)c1)N1CCCCCC1 [CC-004]
[2]
  IC50: ≤ 1000 nM

## CC1(C)CCCN(C(=O)c2cc(C3CCOCC3)sc2Cl)C1 [CC-005]
[2]
  IC50: ≤ 1000 nM

## O=C(c1cc(C2CCOCC2)sc1Cl)N1CCCCCC1 [CC-006, Azepan-1-yl-[2-chloro-5-(tetrahydro-pyran-4-yl)-thiophen-3-yl]methanone]
[2]
  IC50: ≤ 1000 nM

## O=C(OCc1ccccc1)N1CCC(c2cc(C(=O)N3CCCCCC3)cs2)CC1 [CC-007, 4-[4-(Azepane-1-carbonyl)-thiophen-2-yl]-piperidine-1-carboxylic acid benzyl ester]
[2]
  IC50: ≤ 1000 nM

## O=C(c1csc(C2CCNCC2)c1)N1CCCCCC1 [CC-008, Azepan-1-yl-(5-piperidin-4-yl-thiophen-3-yl)-methanone]
[1]
  IC50: 1000 to 30000 nM

## O=C(OCc1ccccc1)N1CCC(c2cc(C(=O)N3CCCCCC3)c(Cl)s2)CC1 [CC-009, 4-[4-(Azepane-1-carbonyl)-5-chloro-thiophen-2-yl]-piperidine-1-carboxylic acid benzyl ester]
[1]
  IC50: 1000 to 30000 nM

## CC1(C)CCCN(C(=O)c2csc(N3CCOCC3)c2)C1 [CC-010, (3,3-Dimethyl-piperidin-1-yl)-(5-morpholin-4-yl-thiophen-3-yl)-methanone]
[1]
  IC50: 1000 to 30000 nM

## CC1(C)CCN(C(=O)c2csc(C3CCOCC3)c2)CC1 [CC-011]
[1]
  IC50: 1000 to 30000 nM

## O=C(c1csc(C2CCNCC2)c1)N1CCCCC1c1ccccn1 (stereo not drawn) [CC-012]
[1]
  IC50: 1000 to 30000 nM

## CC1(C)CCCN(C(=O)c2csc(C3CCNCC3)c2)C1 [CC-013]
[1]
  IC50: 1000 to 30000 nM

## CC1(C)CCCN(C(=O)c2csc(C3CCCNC3)c2)C1 (stereo not drawn) [CC-014]
[1]
  IC50: 1000 to 30000 nM

## O=C(c1csc(C2CCCNC2)c1)N1CCCCCC1 (stereo not drawn) [CC-015, Azepan-1-yl-(5-piperidin-3-yl-thiophen-3-yl)-methanone]
[1]
  IC50: 1000 to 30000 nM

## CC(=O)N1CC=C(c2cc(C(=O)N3CCCCCC3)cs2)CC1 [CC-016, 1-{4-[4-(Azepane-1-carbonyl)-thiophen-2-yl]-3,6-dihydro-2H-pyridin-1-yl}-ethanone]
[1]
  IC50: 1000 to 30000 nM

## O=C(c1csc(C2CCNCC2)c1)N1CCCCC1c1ccccc1 (stereo not drawn) [CC-017, (2-Phenyl-piperidin-1-yl)-(5-piperidin-4-yl-thiophen-3-yl)methanone]
[2]
  IC50: ≤ 1000 nM

## O=C(c1csc(C2CCNCC2)c1)N1CCCC(c2ccccc2)C1 (stereo not drawn) [CC-018]
[1]
  IC50: 1000 to 30000 nM

## C[C@@H]1CN(C(=O)c2csc(C3CCNCC3)c2)C[C@H](C)O1 [CC-019]
[1]
  IC50: 1000 to 30000 nM

## O=C(c1csc(C2CCNCC2)c1)N1CCCC1c1ccccc1 (stereo not drawn) [CC-020]
[1]
  IC50: 1000 to 30000 nM

## CC1(C)CCCN(C(=O)c2csc(C3CCOCC3)c2)CC1 [CC-021]
[2]
  IC50: ≤ 1000 nM

## CC1(C)CCCCN(C(=O)c2csc(C3CCOCC3)c2)C1 [CC-022]
[2]
  IC50: ≤ 1000 nM

## CC1(C)CCCN(C(=O)c2csc(C3CCNCC3)c2)CC1 [CC-023, (4,4-dimethyl-azepan-1-yl)-(5-piperidin-4-yl-thiophen-3-yl)-methanone]
[1]
  IC50: 1000 to 30000 nM

## CC1(C)CCCCN(C(=O)c2csc(C3CCNCC3)c2)C1 [CC-024]
[1]
  IC50: 1000 to 30000 nM

## CC(=O)N1CCC(c2cc(C(=O)N3CCCCC(C)(C)C3)cs2)CC1 [CC-026]
[2]
  IC50: ≤ 1000 nM

## O=C(c1csc(C2CCOCC2)c1)N1CCCC2CCCCC21 (stereo not drawn) [CC-028]
[2]
  IC50: ≤ 1000 nM

## O=C(c1csc(C2CCOCC2)c1)N1CCC2CCCCC2C1 (stereo not drawn) [CC-029]
[1]
  IC50: 1000 to 30000 nM

## O=C(c1cc(C2CCOCC2)sc1Cl)N1CCCC2CCCCC21 (stereo not drawn) [CC-030]
[2]
  IC50: ≤ 1000 nM

## O=C(c1cc(C2CCOCC2)sc1Cl)N1CCC2CCCCC2C1 (stereo not drawn) [CC-031]
[2]
  IC50: ≤ 1000 nM

## O=C(OCc1ccccc1)N1CCC(c2cc(C(=O)N3CCCC4CCCCC43)cs2)CC1 (stereo not drawn) [CC-032]
[1]
  IC50: 1000 to 30000 nM

## CC(=O)N1CCC(c2cc(C(=O)N3CCCC4CCCCC43)cs2)CC1 (stereo not drawn) [CC-036]
[1]
  IC50: 1000 to 30000 nM

## CC(=O)N1CCC(c2cc(C(=O)N3CCN4CCCCC4C3)cs2)CC1 (stereo not drawn) [CC-037]
[1]
  IC50: 1000 to 30000 nM

## O=C(c1csc(C2CCNCC2)c1)N1CCCC2CCCCC21 (stereo not drawn) [CC-040]
[2]
  IC50: ≤ 1000 nM

## O=C(c1csc(C2CCNCC2)c1)N1CCN2CCC[C@H]2C1 [CC-041]
[1]
  IC50: 1000 to 30000 nM

## O=C(c1csc(C2CCNCC2)c1)N1CCN2CCCCC2C1 (stereo not drawn) [CC-042]
[1]
  IC50: 1000 to 30000 nM

## O=C(c1csc(C2CCCNC2)c1)N1CCCC2CCCCC21 (stereo not drawn) [CC-043]
[1]
  IC50: 1000 to 30000 nM

## O=C(c1csc(C2=CCNCC2)c1)N1CCCC2CCCCC21 (stereo not drawn) [CC-047]
[2]
  IC50: ≤ 1000 nM

## O=C1CCCN1c1cc(C(=O)N2CCCC3CCCCC32)cs1 (stereo not drawn) [CC-049]
[2]
  IC50: ≤ 1000 nM

## O=C1COCCN1c1cc(C(=O)N2CCCC3CCCCC32)cs1 (stereo not drawn) [CC-050]
[2]
  IC50: ≤ 1000 nM

## O=C(c1ccno1)N1CCC(c2cc(C(=O)N3CCCC4CCCCC43)cs2)CC1 (stereo not drawn) [CC-051]
[2]
  IC50: ≤ 1000 nM

## O=C(c1ccno1)N1CCC(c2cc(C(=O)N3CCCC4CCCCC43)cs2)CC1 (stereo not drawn) [CC-052]
[1]
  IC50: 1000 to 30000 nM

## O=C(CO)N1CCC(c2cc(C(=O)N3CCCC4CCCCC43)cs2)CC1 (stereo not drawn) [CC-054]
[2]
  IC50: ≤ 1000 nM

## CNCC(=O)N1CCC(c2cc(C(=O)N3CCCC4CCCCC43)cs2)CC1 (stereo not drawn) [CC-056]
[1]
  IC50: 1000 to 30000 nM

## O=C(CN1CCOCC1)N1CCC(c2cc(C(=O)N3CCCC4CCCCC43)cs2)CC1 (stereo not drawn) [CC-059]
[2]
  IC50: ≤ 1000 nM

## O=C(CN1CCOCC1)N1CCC(c2cc(C(=O)N3CCCC4CCCCC43)cs2)CC1 (stereo not drawn) [CC-060]
[1]
  IC50: 1000 to 30000 nM

## O=C(CCN1CCCCC1)N1CCC(c2cc(C(=O)N3CCCC4CCCCC43)cs2)CC1 (stereo not drawn) [CC-062]
[1]
  IC50: 1000 to 30000 nM

## CN(C)CC(=O)N1CCC(c2cc(C(=O)N3CCCC4CCCCC43)cs2)CC1 (stereo not drawn) [CC-063]
[1]
  IC50: 1000 to 30000 nM

## CC(C)OC(=O)N1CCC(c2cc(C(=O)N3CCCC4CCCCC43)cs2)CC1 (stereo not drawn) [CC-067]
[1]
  IC50: 1000 to 30000 nM

## CC1(C)CC2CC(C)(CN2C(=O)c2csc(C3CCOCC3)c2)C1 (stereo not drawn) [CC-069]
[2]
  IC50: ≤ 1000 nM

## CC1(C)CC2CC(C)(CN2C(=O)c2cc(C3CCOCC3)sc2Cl)C1 (stereo not drawn) [CC-070]
[2]
  IC50: ≤ 1000 nM

## CC1(C)CC2CC(C)(CN2C(=O)c2csc(C3CCN(C(=O)OCc4ccccc4)CC3)c2)C1 (stereo not drawn) [CC-071]
[1]
  IC50: 1000 to 30000 nM

## CC1(C)CC2CC(C)(CN2C(=O)c2csc(C3CCNCC3)c2)C1 (stereo not drawn) [CC-072]
[2]
  IC50: ≤ 1000 nM

## CC1(C)CC2CC(C)(CN2C(=O)c2csc(C3CCCNC3)c2)C1 (stereo not drawn) [CC-073]
[2]
  IC50: ≤ 1000 nM

## CC1(C)CC2CC(C)(CN2C(=O)c2csc(C3=CCNCC3)c2)C1 (stereo not drawn) [CC-074]
[2]
  IC50: ≤ 1000 nM

## O=C(c1csc(C2CCOCC2)c1)N1CCCC2(CCCCC2)C1 [CC-077]
[2]
  IC50: ≤ 1000 nM

## O=C(OCc1ccccc1)N1CCC(c2cc(C(=O)N3CCCC4(CCCCC4)C3)cs2)CC1 [CC-078]
[1]
  IC50: 1000 to 30000 nM

## O=C(c1csc(C2CCNCC2)c1)N1CCCC2(CCCCC2)C1 [CC-079]
[1]
  IC50: 1000 to 30000 nM

## O=C(c1csc(C2CCCNC2)c1)N1CCCC2(CCCCC2)C1 (stereo not drawn) [CC-080]
[1]
  IC50: 1000 to 30000 nM

## CC(C)C(=O)N1CCC(c2cc(C(=O)N3CCCC4CCCCC43)cs2)CC1 (stereo not drawn) [CC-081]
[2]
  IC50: ≤ 1000 nM

## O=C(CCCN1CCCCC1)N1CCC(c2cc(C(=O)N3CCCC4CCCCC43)cs2)CC1 (stereo not drawn) [CC-082]
[1]
  IC50: 1000 to 30000 nM

## COCC(=O)N1CCC(c2cc(C(=O)N3CCCC4CCCCC43)cs2)CC1 (stereo not drawn) [CC-083]
[2]
  IC50: ≤ 1000 nM
